What follows are compounds tested against T1, CCR2 (Homo sapiens, UniProt P41597) (assay: MCP-1 Receptor Binding Assay in THP-1 Cells). Conditions: 0.5 nM 125I labeled MCP-1, 2 hours at 30° C., read-out: Inhibition of MCP-1 Binding IC50 CCR2 Binding.
T1 construct: host or cells: THP-1 human monocytic cells
T1 sequence (P41597 1-360 isoform P41597-2): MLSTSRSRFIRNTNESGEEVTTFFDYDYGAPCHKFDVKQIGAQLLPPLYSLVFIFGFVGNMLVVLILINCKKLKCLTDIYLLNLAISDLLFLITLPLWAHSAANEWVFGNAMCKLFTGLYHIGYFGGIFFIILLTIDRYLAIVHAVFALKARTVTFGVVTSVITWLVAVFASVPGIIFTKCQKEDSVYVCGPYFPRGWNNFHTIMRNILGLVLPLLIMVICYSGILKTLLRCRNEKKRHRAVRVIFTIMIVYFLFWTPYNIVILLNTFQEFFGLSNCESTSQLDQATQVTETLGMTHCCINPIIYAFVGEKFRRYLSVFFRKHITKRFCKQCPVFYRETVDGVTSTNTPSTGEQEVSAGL
Procedure: MCP-1 Receptor Binding Assay in THP-1 Cells
Human monocytic cell line THP-1 cells were obtained from American Type Culture Collection (Manassas, Va., USA). […] The cell density was maintained […].
1 μM cold MCP-1 was used for nonspecific binding.

First: O=C(CNC(=O)c1cccc(C(F)(F)F)c1)NC1CN(C2CCC(c3ccc4c(c3)OCO4)CC2)C1 (single isomer, unassigned) [Example 1a, N-{[1-(4-Benzo[1,3]dioxol-5-yl-cyclohexyl)-azetidin-3-ylcarbamoyl]-methyl}-3-trifluoromethyl-benzamide]
Second: O=C(CNC(=O)c1cccc(C(F)(F)F)c1)NC1CN(C2CCC(c3cccc(C(=O)O)c3)CC2)C1 (stereo not shown) [Example 12, 3-(4-{3-[2-(3-Trifluoromethyl-benzoylamino)-acetylamino]-azetidin-1-yl}-cyclohexyl)-benzoic acid]
The IC50 of the first is 180-fold lower: 1.2 nM for the first, 220 nM for the second. The first is the more potent here.

First: O=C(CNC(=O)c1cc(O)cc(C(F)(F)F)c1)NC1CN(C2CCC(c3ccccc3)CC2)C1 (stereo not shown) [Example 81, 3-Hydroxy-N-{[1-(4-phenyl-cyclohexyl)-azetidin-3-ylcarbamoyl]-methyl}-5-trifluoromethyl-benzamide]
Second: O=C(CNC(=O)c1cccc(C(F)(F)F)c1)NC1CN(C2CCC(O)(c3ccc4c(c3)OCCO4)CC2)C1 (single isomer, unassigned) [Example 32a, N-({1-[4-(2,3-Dihydro-benzo[1,4]dioxin-6-yl)-4-hydroxy-cyclohexyl]-azetidin-3-ylcarbamoyl}-methyl)-3-trifluoromethyl-benzamide]
The IC50 of the first is 170-fold higher: 11000 nM for the first, 63 nM for the second. The second is the more potent here.

Compared with “N-({1-[4-(4,4-bis-Methanesulfonylamino-phenyl)-cyclohexyl]-azetidin-3-ylcarbamoyl}-methyl)-3-trifluoromethyl-benzamide [Example 17]”, O=C(CNC(=O)c1ccc([N+](=O)[O-])c(C(F)(F)F)c1)NC1CN(C2CCC(c3ccccc3)CC2)C1 (stereo not shown) [Example 73, 4-Nitro-N-{[1-(4-phenyl-cyclohexyl)-azetidin-3-ylcarbamoyl]-methyl}-3-trifluoromethyl-benzamide] is 18-fold higher in IC50: 27 nM for the first, 490 nM for the second. The first is the more potent here.

Going from O=C(CNC(=O)c1cccc(C(F)(F)F)c1)NC1CN(C2CCC(O)(c3ccc(C(=O)O)cc3)CC2)C1 (stereo not shown) [Example 45, 4-(1-Hydroxy-4-{3-[2-(3-trifluoromethyl-benzoylamino)-acetylamino]-azetidin-1-yl}-cyclohexyl)-benzoic acid] to O=C(CNC(=O)c1cccc(C(F)(F)F)c1)NC1CN(C2CCC(O)(c3ccc(O)cc3)CC2)C1 (stereo not shown) [Example 42, N-({1-[4-Hydroxy-4-(4-hydroxy-phenyl)-cyclohexyl]-azetidin-3-ylcarbamoyl}-methyl)-3-trifluoromethyl-benzamide], the IC50 falls from 6900 nM to 130 nM (53-fold). The second is the more potent here.

First: COc1ccc(C2(O)CCC(N3CC(NC(=O)CNC(=O)c4cccc(C(F)(F)F)c4)C3)CC2)cc1 (single isomer, unassigned) [Example 36a, N-({1-[4-Hydroxy-4-(4-methoxy-phenyl)-cyclohexyl]-azetidin-3-ylcarbamoyl}-methyl)-3-trifluoromethyl-benzamide]
Second: O=C(CNC(=O)c1cc(C(F)(F)F)ccc1N1CCCC1)NC1CN(C2CCC(c3ccccc3)CC2)C1 (stereo not shown) [Example 70, N-{[1-(4-Phenyl-cyclohexyl)-azetidin-3-ylcarbamoyl]-methyl}-2-pyrrolidin-1-yl-5-trifluoromethyl-benzamide]
The IC50 of the first is 81-fold lower: 21 nM for the first, 1700 nM for the second.

Compared with N#Cc1ccc(C2CCC(N3CC(NC(=O)CNC(=O)c4cccc(C(F)(F)F)c4)C3)CC2)cc1 (stereo not shown) [Example 27, N-({1-[4-(4-Cyano-phenyl)-cyclohexyl]-azetidin-3-ylcarbamoyl}-methyl)-3-trifluoromethyl-benzamide], CN(C)c1ccc(C(F)(F)F)cc1C(=O)NCC(=O)NC1CN(C2CCC(c3ccccc3)CC2)C1 (stereo not shown) [Example 69, 2-Dimethylamino-N-{[1-(4-phenyl-cyclohexyl)-azetidin-3-ylcarbamoyl]-methyl}-5-trifluoromethyl-benzamide] is 2.8-fold higher in IC50: 86 nM for the first, 240 nM for the second. The first is the more potent here.

O=C(CNC(=O)c1cccc(C(F)(F)F)c1)NC1CN(C2CCC(c3ccc4oc(=O)[nH]c4c3)CC2)C1 (single isomer, unassigned) [Example 5a, N-({1-[4-(2-oxo-2,3-dihydro-benzooxazol-5-yl)-cyclohexyl]-azetidin-3-ylcarbamoyl}-methyl)-3-trifluoromethyl-benzamide] showed an IC50 of 9 nM.

Reference: patent publication US8513229B2, “4-Azetidinyl-1-phenyl-cyclohexane antagonists of CCR2” (Janssen Pharmaceutica NV, priority 2009, dated 2013)
